Structures are written as SMILES. pIC50: −log10 of the molar value. Where only a bound is given, the exact number is not on record here.

Consider seven compounds from ChEMBL document CHEMBL2417364, “Acetylated dammarane-type bisdesmosides from Combretum inflatum” (J Nat Prod, 2013).

One assay concerns Escherichia coli. Description: Inhibition of biofilm formation in Escherichia coli UTI89 after 72 hrs by crystal violet staining. The format is functional, organism-based. The conditions noted are these: UTI89, 72 h.
Another assay deals with Staphylococcus aureus. Description: Antibacterial activity against methicillin-resistant Staphylococcus aureus clinical isolate 108 at 16 ug/ml after 24 hrs by broth microdilution method. Format: functional. (Dilution methods test growth across graded concentrations, often in twofold steps.)
For a further assay, the system named is NCI-H460. Description: Cytotoxicity against human NCI-H460 cells after 72 hrs. The conditions noted are these: NCI-H460, 72 h. The format is functional, cell-based.

As usually defined, the IC50 is the concentration that gives 50% inhibition. On to `CC(=O)O[C@@H]1[C@H](O[C@@H]2O[C@H](C)[C@H](O)[C@H](O)[C@H]2O)C[C@]2(C)[C@H]3[C@H](O[C@@H]4O[C@H](C)[C@H](O)[C@H](O)[C@H]4O)C[C@@H]4[C@@H]([C@](C)(O)CCCC(C)(C)O)CC[C@@]4(C)[C@]3(C)CC[C@H]2C1(C)C`, for which the half-inhibitory concentration (IC50) in the assay with Escherichia coli is at least 30 µg/mL.

In the assay on Escherichia coli, `CC(=O)O[C@@H]1[C@H](O[C@@H]2O[C@H](C)[C@@H](O)[C@H](O)[C@H]2O)C[C@]2(C)[C@H]3[C@H](O[C@@H]4O[C@H](C)[C@H](O)[C@H](O)[C@H]4O)C[C@@H]4[C@@H]([C@](C)(O)CCCC(C)(C)O)CC[C@@]4(C)[C@]3(C)CC[C@H]2C1(C)C` came in with an IC50 of at least 30 µg/mL.

Take `CC(=O)O[C@@H]1[C@H](O[C@@H]2O[C@H](C)[C@H](O)[C@H](O)[C@H]2O)C[C@]2(C)[C@H]3[C@H](O[C@@H]4O[C@H](C)[C@H](O)[C@H](O)[C@H]4O)C[C@@H]4[C@@H](/C(C)=C/CCC(C)(C)O)CC[C@@]4(C)[C@]3(C)CC[C@H]2C1(C)C`: in the assay on Staphylococcus aureus, the Activity stood at 71%. For the same compound, the IC50 in the assay with Escherichia coli is at least 30 µg/mL.

`CC(=O)O[C@@H]1[C@H](O[C@@H]2O[C@H](C)[C@@H](O)[C@H](O)[C@H]2O)C[C@]2(C)[C@H]3[C@H](O[C@@H]4O[C@H](C)[C@H](O)[C@H](O)[C@H]4O)C[C@@H]4[C@@H](/C(C)=C/CCC(C)(C)O)CC[C@@]4(C)[C@]3(C)CC[C@H]2C1(C)C` yielded an Activity in the assay with Staphylococcus aureus of 64%. The IC50 in the assay on Escherichia coli is at least 30 µg/mL.

`CC(=O)O[C@@H]1[C@H](O[C@@H]2O[C@H](C)[C@H](O)[C@H](O)[C@H]2O)C[C@]2(C)[C@H]3[C@H](O[C@@H]4O[C@H](C)[C@H](O)[C@H](O)[C@H]4O)C[C@@H]4[C@@H]([C@](C)(O)CCC=C(C)C)CC[C@@]4(C)[C@]3(C)CC[C@H]2C1(C)C` came in with an Activity in the assay with Staphylococcus aureus of 45%. The IC50 with Escherichia coli is at least 30 µg/mL.

In turn, `CC(=O)O[C@@H]1[C@H](O[C@@H]2O[C@H](C)[C@@H](O)[C@H](O)[C@H]2O)C[C@]2(C)[C@H]3[C@H](O[C@@H]4O[C@H](C)[C@H](O)[C@H](O)[C@H]4O)C[C@@H]4[C@@H]([C@](C)(O)CCC=C(C)C)CC[C@@]4(C)[C@]3(C)CC[C@H]2C1(C)C` returned an Activity in the assay on Staphylococcus aureus of 51%. For the same compound, in the assay on Escherichia coli, the IC50 was at least 30 µg/mL.

As a reminder, the pIC50 is the IC50 on a negative log10 scale, so that one unit is a factor of ten. Higher therefore signals a low IC50. With `CC(=O)O[C@@H]1[C@H](O[C@@H]2O[C@H](C)[C@H](O)[C@H](O)[C@H]2O)C[C@]2(C)[C@H]3[C@H](O[C@@H]4O[C@H](C)[C@H](O)[C@H](O)[C@H]4O)C[C@@H]4[C@@H]([C@@](C)(O)CCC=C(C)C)CC[C@@]4(C)[C@]3(C)CC[C@H]2C1(C)C`, the Activity in the assay with Staphylococcus aureus amounted to 49%. The compound also had a pIC50 in the assay with NCI-H460 of 5.41. Besides, the IC50 in the assay with Escherichia coli was at least 30 µg/mL.
